The IC50 is the midpoint of a concentration-inhibition curve.

For test [1], the target named is T1, cardiac myofibrils (myosin ATPase).
T1 construct: frozen myofibril pellets obtained from cardiac tissue; from tissue
Nature of the test: Cardiac Myofibril ATPase Assay (counter screen). The class given is biochemical. As to conditions: myofibrils 1.0 mg/mL, KCl omitted. The protocol: (§1) Overview: Myosin ATPase activity is assessed by using a coupled reaction system, in which ADP generated by the myosin ATPase function is coupled to the disappearance of NADH through the pyruvate kinase/lactate dehydrogenase (PK-LDH) system. ATPase activity produces ADP, which is used as a substrate for PK to produce pyruvate and regenerate ATP. The pyruvate is then used as a substrate by LDH to oxidize NADH to NAD+. The rate of the reaction is monitored through the time-dependent disappearance of NADH using absorbance at 340 nm. Inhibition of ATPase activity by the assayed compounds is indicated by a reduced rate of NADH loss, relative to vehicle-treated controls, over the experimental time window. To assess the selectivity of the assayed compounds for skeletal myofibrils, the compounds are counter-screened in cardiac myofibrils.
Example 13: Cardiac Myofibril ATPase Assay
Following example 11, the counter screen was done using frozen myofibril pellets obtained from cardiac tissue. The assay was done in the same manner as above, with the following notable exceptions: the final well concentration of myofibrils was 1.0 mg/mL and KCl was omitted from the recipe.
Compounds of Table 1 to 3 were tested, and results of the assays appear in Tables 5a-5c herein. A=IC50 is less than or equal to 10 μM; B=IC50 is greater than 10 μM and less than 100 μM; C=IC50 is greater than 100 μM; and […].
(In general: A counterscreen serves to expose hits that act by an unwanted route or on another target.)

Test [2] concerns the target skeletal myofibrils (myosin ATPase). Nature of the test: Skeletal Myofibril ATPase Assay. The class given is biochemical. The protocol:
FIG. 7 depicts the buffer preparation procedures of Buffer A and Buffer B for the skeletal myofibril ATPase assay described in Example 12. Buffers were stored on ice until use.
Example 12: Skeletal Myofibril ATPase Assay
as §1
Materials: The following stock solutions and reagents were used in the Skeletal Myofibril ATPase Assay:
Stock Solutions of pCa buffer. Combine PIPES, CaCl2, and EGTA solutions with 70 mL of water. Adjust pH to 7.0 and bring final volume to 100 mL.
Skeletal Myofibril ATPase Assay Procedure: BSA, ATP, NADH, PEP, and DTT solutions were thawed at room temperature, then transferred to ice. Pellet-frozen myofibrils were transferred with approximately twice the required volume into a sufficiently large tube and capped. Myofibrils were thawed by rolling in a water bath for approximately 15 min at room temperature and cooled on ice. Buffers A and B were prepared by adjusting volumes as necessary for required number of wells and stored on ice. 0.5 μL of the compounds to be assayed were added into wells. 25 μL of Buffer A was dispensed into the wells, followed by 25 μL of Buffer B. The wells were measured for absorbance at 340 nm, using a kinetic protocol in which the wells are read every 1.5-2 min for 45 min. The slope of the data was approximated by subtracting the minimum absorbance value from the maximum value for each well. This was accomplished either in the SoftMax Pro software or in a spreadsheet program such as Excel. Using GraphPad Prism 8.0, the data was normalized by assigning a value of 100% to the 1% DMSO vehicle wells. Typically, a normalized 0% value was simply assigned to a (Max−Min) value of 0. The normalized data was fit to a Four Parameter Logistic sigmoidal equation, constraining the bottom to be 0 or greater. Compounds of Table 1, 2, and 3 were tested and results of the assay appear in Tables 4a-4c. A=IC50 is less than or equal to 10 μM; B=IC50 is greater than 10 μM and less than 100 μM; C=IC50 is greater than 100 μM.

T1 sequence (P12883 whole entry): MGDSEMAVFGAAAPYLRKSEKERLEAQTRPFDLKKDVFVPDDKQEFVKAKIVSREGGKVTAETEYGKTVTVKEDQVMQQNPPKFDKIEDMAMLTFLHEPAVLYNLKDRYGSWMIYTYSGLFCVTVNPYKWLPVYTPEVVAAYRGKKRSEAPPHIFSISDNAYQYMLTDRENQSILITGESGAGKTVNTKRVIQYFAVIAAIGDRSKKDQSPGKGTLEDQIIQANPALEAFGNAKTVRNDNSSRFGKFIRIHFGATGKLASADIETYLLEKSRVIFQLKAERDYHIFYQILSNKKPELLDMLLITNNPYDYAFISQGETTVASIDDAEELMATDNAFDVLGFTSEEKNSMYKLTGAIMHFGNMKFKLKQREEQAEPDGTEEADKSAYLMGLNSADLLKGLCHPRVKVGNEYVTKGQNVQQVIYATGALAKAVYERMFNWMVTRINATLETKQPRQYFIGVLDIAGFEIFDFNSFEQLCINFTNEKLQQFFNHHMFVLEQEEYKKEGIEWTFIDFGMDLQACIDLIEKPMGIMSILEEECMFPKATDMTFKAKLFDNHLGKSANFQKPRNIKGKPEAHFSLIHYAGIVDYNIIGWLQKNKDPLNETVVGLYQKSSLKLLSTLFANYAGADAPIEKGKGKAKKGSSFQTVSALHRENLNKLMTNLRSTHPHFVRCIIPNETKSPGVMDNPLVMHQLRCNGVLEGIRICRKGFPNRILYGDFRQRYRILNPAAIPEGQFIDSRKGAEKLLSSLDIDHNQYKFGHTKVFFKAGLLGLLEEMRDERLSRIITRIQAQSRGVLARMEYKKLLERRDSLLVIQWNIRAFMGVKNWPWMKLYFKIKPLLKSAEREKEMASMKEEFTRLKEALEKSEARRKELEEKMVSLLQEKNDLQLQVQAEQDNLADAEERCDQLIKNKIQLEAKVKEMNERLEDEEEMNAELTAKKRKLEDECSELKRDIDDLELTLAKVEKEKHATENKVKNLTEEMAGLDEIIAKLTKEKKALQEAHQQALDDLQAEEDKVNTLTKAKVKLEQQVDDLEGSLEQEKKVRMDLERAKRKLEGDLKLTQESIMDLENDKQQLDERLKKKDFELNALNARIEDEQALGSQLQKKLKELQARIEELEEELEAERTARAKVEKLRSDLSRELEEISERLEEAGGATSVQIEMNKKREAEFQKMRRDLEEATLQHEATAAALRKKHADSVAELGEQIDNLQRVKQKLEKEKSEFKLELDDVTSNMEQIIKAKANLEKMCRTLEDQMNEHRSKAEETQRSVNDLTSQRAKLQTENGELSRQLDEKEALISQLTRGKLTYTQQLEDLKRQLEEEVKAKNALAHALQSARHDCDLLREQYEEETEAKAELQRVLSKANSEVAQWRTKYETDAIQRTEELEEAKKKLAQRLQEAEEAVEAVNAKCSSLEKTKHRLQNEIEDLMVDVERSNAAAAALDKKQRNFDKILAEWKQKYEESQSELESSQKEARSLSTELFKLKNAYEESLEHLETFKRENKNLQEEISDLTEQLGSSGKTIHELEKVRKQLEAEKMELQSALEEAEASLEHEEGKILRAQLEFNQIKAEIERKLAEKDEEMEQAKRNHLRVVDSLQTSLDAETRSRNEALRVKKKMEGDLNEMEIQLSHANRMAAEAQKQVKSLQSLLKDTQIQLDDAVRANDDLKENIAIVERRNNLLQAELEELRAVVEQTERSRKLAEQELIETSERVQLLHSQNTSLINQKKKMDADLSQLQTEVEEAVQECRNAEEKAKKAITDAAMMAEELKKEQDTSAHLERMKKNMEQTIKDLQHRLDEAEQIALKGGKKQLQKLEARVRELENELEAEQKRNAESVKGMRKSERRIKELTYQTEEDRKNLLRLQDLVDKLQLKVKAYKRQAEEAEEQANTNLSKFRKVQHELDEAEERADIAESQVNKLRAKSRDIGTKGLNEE
T1 sequence (P08590 whole entry partner): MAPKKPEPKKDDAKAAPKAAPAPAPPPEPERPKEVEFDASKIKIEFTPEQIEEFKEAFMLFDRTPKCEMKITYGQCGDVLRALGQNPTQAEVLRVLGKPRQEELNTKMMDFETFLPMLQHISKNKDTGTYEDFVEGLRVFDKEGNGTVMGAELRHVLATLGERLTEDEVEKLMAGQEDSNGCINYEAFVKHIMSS
T1 sequence (P10916 whole entry partner): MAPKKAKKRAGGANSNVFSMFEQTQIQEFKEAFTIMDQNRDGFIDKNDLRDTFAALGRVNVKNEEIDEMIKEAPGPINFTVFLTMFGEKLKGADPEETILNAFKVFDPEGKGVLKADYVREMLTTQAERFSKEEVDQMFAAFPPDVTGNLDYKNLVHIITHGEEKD

With `CCNC(=O)Cn1nc(-c2ccc(OC(F)F)nc2)ccc1=O` [Compound I-7, 2-(3-(6-(difluoromethoxy)pyridin-3-yl)-6-oxopyridazin-1(6H)-yl)-N-ethylacetamide], the values for the IC50 in test [1] (Table 5A) and in test [2] (Table 4A) were > 100 µM and < 10 µM, respectively.
Take `CC1(NC(=O)Cn2nc(-c3ccc(OC(F)F)nc3)ccc2=O)CCC1` [Compound I-15, 2-(3-(6-(difluoromethoxy)pyridin-3-yl)-6-oxopyridazin-1(6H)-yl)-N-(1-methylcyclobutyl)acetamide]: the IC50 in test [1] (Table 5A) is > 100 µM; in test [2] (Table 4A), 10 to 100 µM.
Turning to `COc1ccc(-c2ccc(=O)n(CC(=O)NC(C)C)n2)c(F)c1` [IIIb-19, 2-(3-(2-fluoro-4-methoxyphenyl)-6-oxopyridazin-1(6H)-yl)-N-isopropylacetamide], the IC50 in test [1] (Table 5C) is > 100 µM; in test [2] (Table 4C) it was 10 to 100 µM.
With `CCNC(=O)Cn1nc(-c2ccc(OCCCN(C)C)nc2)ccc1=O` [Compound I-28, 2-(3-(6-(3-(dimethylamino)propoxy)pyridin-3-yl)-6-oxopyridazin-1(6H)-yl)-N-ethylacetamide], the IC50 in test [1] (Table 5A) and in test [2] (Table 4A) was > 100 µM throughout.
As for `CCNC(=O)Cn1nc(-c2ccc(NC(C)=O)cc2)ccc1=O` [II-2, 2-(3-(4-acetamidophenyl)-6-oxopyridazin-1(6H)-yl)-N-ethylacetamide], the IC50 is > 100 µM in test [1] (Table 5B) and < 10 µM in test [2] (Table 4B).
Turning to `O=C(Cn1nc(-c2ccc3c(c2)OCCCO3)ccc1=O)NC1CCCCCC1` [IIIb-24, N-cycloheptyl-2-(3-(3,4-dihydro-2H-benzo[b][1,4]dioxepin-7-yl)-6-oxopyridazin-1(6H)-yl)acetamide], the values for the IC50 in test [1] (Table 5C) and in test [2] (Table 4C) were > 100 µM and 10 to 100 µM, respectively.
As for `C[C@H](NC(=O)Cn1nc(-c2ccc(OC(F)F)nc2)ccc1=O)c1ccnn1C` [Compound I-29, (S)-2-(3-(6-(difluoromethoxy)pyridin-3-yl)-6-oxopyridazin-1(6H)-yl)-N-(1-(1-methyl-1H-pyrazol-5-yl)ethyl)acetamide], the IC50 in test [1] (Table 5A) and in test [2] (Table 4A) was > 100 µM throughout.
Turning to `O=C(Cn1nc(-c2ccc(OCC(F)(F)F)cc2)ccc1=O)N1CC(c2ccccc2)C1` [II-22, 2-(2-oxo-2-(3-phenylazetidin-1-yl)ethyl)-6-(4-(2,2,2-trifluoroethoxy)phenyl)pyridazin-3(2H)-one], the IC50 in test [1] (Table 5B) is > 100 µM; in test [2] (Table 4B), < 10 µM.
In the case of `CCc1ccc(-c2ccc(=O)n(CC(=O)Nc3ccc4c(c3)OCCO4)n2)cc1` [IIIb-44, N-(2,3-dihydrobenzo[b][1,4]dioxin-6-yl)-2-(3-(4-ethylphenyl)-6-oxopyridazin-1(6H)-yl)acetamide], the IC50 in test [1] (Table 5C) and in test [2] (Table 4C) was > 100 µM each time.
Turning to `COc1ccc(-c2ccc(=O)n(CC(=O)Nc3cc(Cl)ccc3Cl)n2)cc1` [IIIb-10, N-(2,5-dichlorophenyl)-2-(3-(4-methoxyphenyl)-6-oxopyridazin-1(6H)-yl)acetamide], the half-inhibitory concentration (IC50) is > 100 µM in test [1] (Table 5C) and < 10 µM in test [2] (Table 4C).
With `CCCOc1ncc(-c2ccc(=O)n(CC(=O)NC3CCC3)n2)cn1` [Compound I-73, N-cyclobutyl-2-(6-oxo-3-(2-propoxypyrimidin-5-yl)pyridazin-1(6H)-yl)acetamide], the IC50 was > 100 µM in test [1] (Table 5A) and < 10 µM in test [2] (Table 4A).
As for `CCNC(=O)Cn1nc(-c2ccc(OC(F)F)cc2)c(C)cc1=O` [II-19, 2-(3-(4-(difluoromethoxy)phenyl)-4-methyl-6-oxopyridazin-1(6H)-yl)-N-ethylacetamide], the concentration for half-maximal inhibition (IC50) in test [1] (Table 5B) is > 100 µM; in test [2] (Table 4B) it was 10 to 100 µM.
On to `COc1ccc(-c2ccc(=O)n(CC(=O)NC3CCCCC3)n2)c(F)c1` [IIIb-60, N-cyclohexyl-2-(3-(2-fluoro-4-methoxyphenyl)-6-oxopyridazin-1(6H)-yl)acetamide], for which the 50% inhibitory concentration (IC50) in test [1] (Table 5C) and in test [2] (Table 4C) was > 100 µM throughout.
`O=C(Cn1nc(-c2ccc(OCC(F)(F)F)cc2)ccc1=O)NCc1ccc[nH]c1=O` [II-26, N-((2-oxo-1,2-dihydropyridin-3-yl)methyl)-2-(6-oxo-3-(4-(2,2,2-trifluoroethoxy)phenyl)pyridazin-1(6H)-yl)acetamide]: the concentration for half-maximal inhibition (IC50) is > 100 µM in test [1] (Table 5B) and 10 to 100 µM in test [2] (Table 4B).
For `COc1ccc(-c2ccc(=O)n(CC(=O)NCC(C)C)n2)cc1` [IIIb-29, N-isobutyl-2-(3-(4-methoxyphenyl)-6-oxopyridazin-1(6H)-yl)acetamide], the IC50 in test [1] (Table 5C) was > 100 µM; in test [2] (Table 4C) it was 10 to 100 µM.
For `Cn1ccc2c(NC(=O)Cn3nc(-c4ccc(F)cc4)ccc3=O)cccc21` [IIIc-16, 2-(3-(4-fluorophenyl)-6-oxopyridazin-1(6H)-yl)-N-(1-methyl-1H-indol-4-yl)acetamide] the same measures were > 100 µM and < 10 µM.
For `COc1ccc(-c2ccc(=O)n(CC(=O)NCCC(C)C)n2)c(F)c1` [IIIb-57, 2-(3-(2-fluoro-4-methoxyphenyl)-6-oxopyridazin-1(6H)-yl)-N-isopentylacetamide] the same measures were > 100 µM and > 100 µM.
With `O=C(Cn1nc(-c2cnc(OCCOC(F)(F)F)nc2)ccc1=O)NC1CCC1` [Compound I-72, N-cyclobutyl-2-(6-oxo-3-(2-(2-(trifluoromethoxy)ethoxy)pyrimidin-5-yl)pyridazin-1(6H)-yl)acetamide], the IC50 in test [1] (Table 5A) is > 100 µM; in test [2] (Table 4A), < 10 µM.
With `COc1ccc(-c2ccc(=O)n(CC(=O)NC3CCCC3)n2)cc1OC` [IIIb-45, N-cyclopentyl-2-(3-(3,4-dimethoxyphenyl)-6-oxopyridazin-1(6H)-yl)acetamide], the IC50 in test [1] (Table 5C) and in test [2] (Table 4C) was > 100 µM in each case.
For `COc1ccccc1NC(=O)Cn1nc(-c2ccccc2)ccc1=O` [IIIc-58, N-(2-methoxyphenyl)-2-(6-oxo-3-phenylpyridazin-1(6H)-yl)acetamide], the figures for the half-maximal inhibitory concentration (IC50) in test [1] (Table 5C) and in test [2] (Table 4C) were > 100 µM and 10 to 100 µM, respectively.
On to `CCNC(=O)Cn1nc(-c2ccc(NC3CCOCC3)nc2)ccc1=O` [Compound I-45, N-ethyl-2-(6-oxo-3-(6-((tetrahydro-2H-pyran-4-pyran-4-yl)amino)pyridin-3-yl)pyridazin-1(6H)-yl)acetamide], for which the IC50 in test [1] (Table 5A) and in test [2] (Table 4A) was > 100 µM in each case.
With `CCNC(=O)Cn1nc(-c2cnc(Oc3ccc(Cl)cc3)nc2)ccc1=O` [Compound I-78, 2-(3-(2-(4-chlorophenoxy)pyrimidin-5-yl)-6-oxopyridazin-1(6H)-yl)-N-ethylacetamide], the IC50 is > 100 µM in test [1] (Table 5A) and 10 to 100 µM in test [2] (Table 4A).
For `CCNC(=O)Cn1nc(-c2ccc(NC34CC(C)(C3)C4)nc2)ccc1=O` [Compound I-60, N-ethyl-2-(3-(6-((3-methylbicyclo[1.1.1]pentan-1-yl)amino)pyridin-3-yl)-6-oxopyridazin-1(6H)-yl)acetamide] the same measures were > 100 µM and < 10 µM.
In the case of `CCNC(=O)Cn1nc(-c2ccc(NC3CCC3)nc2)ccc1=O` [Compound I-62, 2-(3-(6-(cyclobutylamino)pyridin-3-yl)-6-oxopyridazin-1(6H)-yl)-N-ethylacetamide], the half-inhibitory concentration (IC50) is > 100 µM in test [1] (Table 5A) and < 10 µM in test [2] (Table 4A).
On to `COc1ccc(-c2ccc(=O)n(CC(=O)NCc3cccc(C)c3)n2)cc1` [IIIa-10, 2-(3-(4-methoxyphenyl)-6-oxopyridazin-1(6H)-yl)-N-(3-methylbenzyl) acetamide], for which the IC50 is > 100 µM in test [1] (Table 5C) and < 10 µM in test [2] (Table 4C).
For `CCNC(=O)Cn1nc(-c2ccc(NC(C)(C)C)nc2)ccc1=O` [Compound I-53, 2-(3-(6-(tert-butylamino)pyridin-3-yl)-6-oxopyridazin-1(6H)-yl)-N-ethylacetamide], the IC50 is > 100 µM in test [1] (Table 5A) and < 10 µM in test [2] (Table 4A).

For the origin of these results see US12415794B2 (Edgewise Therapeutics, Inc., priority 2018, dated 2025).
